Assay results as given in PubChem BioAssay (NCI).
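Briefly, cells in 96-well plates were exposed to five compound concentrations for 48 h, and endpoints were estimated by linear interpolation. GI50 marks 50% less growth. TGI: concentration producing complete growth inhibition.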 Where a SMILES comes first, the peptide text is derived from it. [ ]: non-standard residue; d: D form. The star is where a group is joined. NMeF = CN[CH](Cc1ccccc1)C(=O)O; NMeV = CN[CH](C(=O)O)C(C)C; Boc = CC(C)(C)OC(=O)*

Experiments:
Assay in all cases: DTP human tumour cell line panel, 48 h
OVCAR-3 ovarian = test system: OVCAR-3 ovarian
SK-MEL-28 melanoma = test system: SK-MEL-28 melanoma
K-562 leukemia = test system: K-562 leukemia
SR leukemia = test system: SR leukemia
KM12 colon = test system: KM12 colon
NCI-H23 lung = test system: NCI-H23 lung
OVCAR-8 ovarian = test system: OVCAR-8 ovarian
UO-31 renal = test system: UO-31 renal
RXF 393 renal = test system: RXF 393 renal
SF-268 CNS = test system: SF-268 CNS

Compound | TGI (OVCAR-3 ovarian) | TGI (SK-MEL-28 melanoma) | TGI (K-562 leukemia) | TGI (SR leukemia) | TGI (KM12 colon) | TGI (NCI-H23 lung) | TGI (OVCAR-8 ovarian) | TGI (UO-31 renal) | TGI (RXF 393 renal) | TGI (SF-268 CNS) | GI50 (OVCAR-3 ovarian) | GI50 (K-562 leukemia) | GI50 (SR leukemia) | GI50 (KM12 colon) | GI50 (NCI-H23 lung) | GI50 (OVCAR-8 ovarian) | GI50 (UO-31 renal) | GI50 (RXF 393 renal) | GI50 (SF-268 CNS) | GI50 (SK-MEL-28 melanoma)
N#C/C(=C1C=C(Br)/C(=N\O)C=C\1Cl)c1cccc2ccccc12 | 9.39 µM | 21.9 µM | 14.3 µM | 13.8 µM | 19.4 µM | 36.3 µM | 52.7 µM | 24.1 µM | 4.44 µM | 29.3 µM |  |  |  |  |  |  |  |  |  | 
COC(=O)C1=C(C)N(NC(=O)OC(C)(C)C)C(=O)C1=P(c1ccccc1)(c1ccccc1)c1ccccc1 | > 100 µM |  | > 100 µM | > 100 µM | > 100 µM | > 100 µM | > 100 µM | > 100 µM | > 100 µM | > 100 µM |  |  |  |  |  |  |  |  |  | 
Cc1cn(C2CC(O)C(CO)O2)c(=O)n2nnnc12 (stereo not drawn) | > 100 µM | > 100 µM | > 100 µM | > 100 µM | > 100 µM | > 100 µM | > 100 µM | > 100 µM |  | > 100 µM |  |  |  |  |  |  |  |  |  | 
c1ccc(CNn2nnc3ccccc32)cc1 | > 100 µM | > 100 µM | > 100 µM |  | > 100 µM | > 100 µM | > 100 µM | > 100 µM | > 100 µM | > 100 µM |  |  |  |  |  |  |  |  |  | 
Cc1ccc(C2=C(c3ccccc3)C(Br)(c3ccc(C)cc3)C(c3ccccc3)=C2c2ccc(C)cc2)cc1 | > 100 µM | > 100 µM | > 100 µM |  | > 100 µM | > 100 µM | > 100 µM |  |  | > 100 µM |  |  |  |  |  |  |  |  |  | 
Cc1cc(Cl)ccc1N=C1NC(=O)C(CC(=O)Nc2ccc([N+](=O)[O-])cc2[N+](=O)[O-])S1 (stereo not drawn) | 73.8 µM | > 100 µM | > 100 µM |  | > 100 µM | 51.8 µM | > 100 µM | 42.6 µM |  | > 100 µM |  |  |  |  |  |  |  |  |  | 
O=C1CCN2C(=O)CCN12 | > 100 µM | > 100 µM | > 100 µM | > 100 µM | > 100 µM | > 100 µM | > 100 µM | > 100 µM |  | > 100 µM |  |  |  |  |  |  |  |  |  | 
COc1cc(C(C)O)c[n+](CCc2c[nH]c3ccccc23)c1 (stereo not drawn) | > 100 µM |  | > 100 µM | > 100 µM | > 100 µM | > 100 µM | > 100 µM | > 100 µM | > 100 µM | > 100 µM |  |  |  |  |  |  |  |  |  | 
CC(C)C(NC(=O)OC(C)(C)C)C(=O)N(C)C(Cc1ccccc1)C(=O)N(C)C(C(=O)O)C(C)C (stereo not drawn) (Boc-Val-[NMeF]-[NMeV]-OH; configuration not given here) | > 100 µM | > 100 µM | > 100 µM | > 100 µM | > 100 µM | > 100 µM | > 100 µM | > 100 µM |  | > 100 µM |  |  |  |  |  |  |  |  |  | 
CCOc1ccccc1N=Nc1ccc2oc(=O)c(C(=O)Nc3cccc(C)c3)cc2c1 | 62.4 µM | 72.3 µM | 88 µM |  | > 100 µM | 94.7 µM | 86 µM | > 100 µM |  | > 100 µM |  |  |  |  |  |  |  |  |  | 
COc1ccc(-c2n[nH]nc2-c2cc(OC)c(OC)c(OC)c2)cc1 | < 0.01 µM |  | > 100 µM | > 47.9 µM | 0.0445 µM | 36.4 µM | 22 µM | 28 µM | 26.2 µM | > 100 µM | < 0.01 µM | < 0.01 µM | < 0.01 µM | < 0.01 µM | < 0.01 µM | < 0.01 µM | 0.207 µM | < 0.01 µM | 0.0156 µM | 
Cc1cccc(NC(=O)/C(=N\NC(C)(C)C)C2NC(=S)NC2=O)c1C (stereo not drawn) | > 100 µM |  | > 100 µM |  | > 100 µM |  | > 100 µM | > 100 µM |  |  |  |  |  |  |  |  |  |  |  | 
COc1ccc(/C=C/c2ccnc3ccccc23)c(OC)c1 | > 10 µM | > 10 µM | > 10 µM |  | > 10 µM |  | > 10 µM | > 10 µM | > 10 µM | > 10 µM |  |  |  |  |  |  |  |  |  | 
C[C@@]12CC=C3c4nc(Nc5cccc(O)c5)sc4CC[C@]3(C)[C@H]1CC[C@]1(C)C(=O)CC[C@@H]21 | 3.1 µM |  | > 100 µM | > 100 µM |  | 12.3 µM | 26 µM |  | 2.35 µM | 7.12 µM | 1.66 µM | 2.53 µM | 1.87 µM |  | 2.74 µM | 3.55 µM |  | 0.666 µM | 2.1 µM | 
COc1cc(/C=C/c2cc(/C=C/c3ccc(O)c(OC)c3)n(C(=O)Nc3ccc(F)c(Cl)c3)n2)ccc1O | 0.837 µM | 3.92 µM | 1.45 µM |  | 1.15 µM | 1.46 µM | 3.09 µM | 1.82 µM | 0.828 µM |  | 0.263 µM | 0.288 µM | 0.0415 µM | 0.31 µM | 0.147 µM | 0.496 µM | 0.248 µM | 0.249 µM |  | 0.52 µM
Cc1cc(S(=O)(=O)Nc2nnc(-c3ccccc3)c(-c3ccccc3)n2)c(SCC(N)=O)cc1Cl | 42.8 µM | > 100 µM | > 100 µM | 47.6 µM | > 100 µM | > 100 µM | 87 µM | > 100 µM |  | > 100 µM | 19.6 µM | 36.3 µM | 24.1 µM | 37 µM | 78.7 µM | 32.5 µM | > 100 µM |  | 37.6 µM | 72.8 µM
C[C@@H]1CC(=O)C2CCCC1C2=O (stereo partly drawn) | > 100 µM | > 100 µM |  | > 100 µM | > 100 µM |  | > 100 µM | > 100 µM | > 100 µM | > 100 µM |  |  |  |  |  |  |  |  |  | 
CC1(C)C(=O)N(CCCCCCN2C(=O)C(C)(C)c3ccccc32)c2ccccc21 | 77.8 µM | > 100 µM | 55.4 µM |  | > 100 µM | > 100 µM | > 100 µM | 92.6 µM |  | > 100 µM |  |  |  |  |  |  |  |  |  | 
COc1ccc(C(=O)C(C(=O)CCC(=O)Nc2cccc(Cl)c2)c2ccc(OC)cc2)cc1 (stereo not drawn) | > 100 µM | > 100 µM | > 100 µM | > 100 µM | > 100 µM | > 100 µM | > 100 µM | > 100 µM |  | > 100 µM |  |  |  |  |  |  |  |  |  | 
COc1ccccc1CCc1cc(OC)c(OC)c(OC)c1 | > 100 µM | > 100 µM | > 100 µM |  | > 100 µM |  | > 100 µM | 61.3 µM | 57.7 µM | > 100 µM |  |  |  |  |  |  |  |  |  | 
Clc1nc(Cl)c(Cl)c(-c2ccccc2)n1 | 5.38 µM | 32.8 µM |  |  | 18 µM | 35 µM | > 100 µM | 34.7 µM | 26.6 µM | 61.6 µM |  |  |  |  |  |  |  |  |  | 
